In article PMC7230162, “Syntheses and Glycosidase Inhibitory Activities, and in Silico Docking Studies of Pericosine E Analogs Methoxy-Substituted at C6” (Marine Drugs, 2020):
Like-named read-outs stand apart in the source and are kept apart here. Values belong to the compound of their own block, whether it stands above or below them.

What was measured:
α-glucosidase (Yeast) [1] = biological target: T1, α-glucosidase (Yeast) (Saccharomyces cerevisiae, UniProt P53341); assay: α-glucosidase inhibitory activity assay (p-nitrophenyl-α-D-glucopyranoside); type: biochemical
T1 sequence (P53341 whole entry): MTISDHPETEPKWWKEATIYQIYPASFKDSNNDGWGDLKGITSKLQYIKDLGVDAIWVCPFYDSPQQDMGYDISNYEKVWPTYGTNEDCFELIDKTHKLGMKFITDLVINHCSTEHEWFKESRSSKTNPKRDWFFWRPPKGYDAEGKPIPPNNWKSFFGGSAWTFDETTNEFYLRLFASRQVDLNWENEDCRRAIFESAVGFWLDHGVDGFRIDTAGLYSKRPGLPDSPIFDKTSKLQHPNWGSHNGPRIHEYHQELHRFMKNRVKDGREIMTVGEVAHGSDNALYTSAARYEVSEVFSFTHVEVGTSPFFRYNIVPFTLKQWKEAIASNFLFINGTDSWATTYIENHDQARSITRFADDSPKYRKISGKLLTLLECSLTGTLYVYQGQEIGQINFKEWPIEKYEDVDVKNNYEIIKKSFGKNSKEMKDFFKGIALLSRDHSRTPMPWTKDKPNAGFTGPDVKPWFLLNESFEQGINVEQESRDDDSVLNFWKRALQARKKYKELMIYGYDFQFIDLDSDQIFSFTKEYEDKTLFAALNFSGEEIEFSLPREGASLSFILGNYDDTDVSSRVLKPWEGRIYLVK
Description: (§1) The synthesized compounds were subjected to glycosidase inhibitory activity assays (Table 1). Herein, α-galactosidase (from green coffee bean) and β-galactosidase (from bovine lever) were used in addition to the three previously employed glycosidases (α-glucosidase, β-glucosidase, and α-mannosidase). To facilitate comparison across studies, we used the same batches of the three abovementioned glycosidases as those employed before. Some compounds were not tested against all five enzymes because of the limited amount of materials.
(§2) Infrared (IR) spectra were recorded on a 1720X Fourier transformation-infrared (FT-IR) spectrometer (Perkin Elmer, MA, USA) or an IRAffinity-1S FT-IR spectrometer (Shimadzu, Kyoto, Japan). High-resolution mass spectra (HRMS) were recorded on a JMS-700 (2) mass spectrometer (JEOL, Tokyo, Japan). Nuclear magnetic resonance (NMR) spectra were recorded at 27 °C on 400-MR-DD2 (Agilent Technologies, CA, USA) and 600-DD2 (Agilent Technologies, CA, USA) instruments in CDCl3 or acetone-d6 using tetramethylsilane as an internal standard. Specific rotations were measured with a JASCO P-2300 spectrometer (JASCO Co., Tokyo, Japan). Liquid column chromatography was conducted on silica gel (Fuji Silysia FL-60D). Analytical thin layer chromatography (TLC) was performed on Silicagel 70 F254 plates (Wako Pure Chemical Industries, Tokyo, Japan), and compounds were detected by dipping the plates into an ethanolic solution of phosphomolybdic acid followed by heating. Microwave (MW)-aided reactions were carried out in a Biotage Initiator® reactor (PartnerTech Atvidaberg AB for Biotage Sweden AB, Uppsala, Sweden). NaBH4 and trifluoroacetic acid (TFA) were purchased from Wako Pure Chemical Industries (Wako Pure Chemical Industries, Tokyo, Japan). BF3·Et2O was purchased from Sigma-Aldrich Co., LLC (St. Lewis, MO, USA). DMP was purchased from TCI (Tokyo Chemical Industry Co., Ltd., Tokyo, Japan). […] Deoxygalactonojirimycin was purchased from Funakoshi Co., Ltd., Tokyo, Japan).
(§3) After 20 min incubation at 37 °C, the reaction was quenched by addition of Na2CO3 solution (0.5 M, 100 μL). The amount of liberated p-nitrophenol was measured colorimetrically at 400 nm (optical density at 400 nm: ODtest).

[2] = biological target: β-glucosidase (Sweet Almond); assay: β-glucosidase inhibitory activity assay (p-nitrophenyl-β-D-glucopyranoside); type: biochemical
Protocol: as §2, §3
Assays of β-glucosidase, α-mannosidase, β-mannosidase, and β-galactosidase inhibitory activities were carried out as above using p-nitrophenyl-β-D-glucopyranoside, p-nitrophenyl-α-D-mannopyranoside, p-nitrophenyl-β-D-mannopyranoside, and p-nitrophenyl-β-D-galactopyranoside as substrates.

[3] = biological target: β-glucosidase (Sweet Almond); parameters: method as in PMID 28124983; conditions: values of a previous work; cited from earlier work
[4] = biological target: T2, α-mannosidase (Jack Bean) (Canavalia ensiformis, UniProt C0HJB3); conditions: read-out: IC50 (M) α-mannosidase (Jack Bean); values of a previous work; cited from earlier work
T2 construct: purchased Sigma-Aldrich Co., LLC lot 055K7047 (catalogue number not given)
T2 sequence (C0HJB3 1-562): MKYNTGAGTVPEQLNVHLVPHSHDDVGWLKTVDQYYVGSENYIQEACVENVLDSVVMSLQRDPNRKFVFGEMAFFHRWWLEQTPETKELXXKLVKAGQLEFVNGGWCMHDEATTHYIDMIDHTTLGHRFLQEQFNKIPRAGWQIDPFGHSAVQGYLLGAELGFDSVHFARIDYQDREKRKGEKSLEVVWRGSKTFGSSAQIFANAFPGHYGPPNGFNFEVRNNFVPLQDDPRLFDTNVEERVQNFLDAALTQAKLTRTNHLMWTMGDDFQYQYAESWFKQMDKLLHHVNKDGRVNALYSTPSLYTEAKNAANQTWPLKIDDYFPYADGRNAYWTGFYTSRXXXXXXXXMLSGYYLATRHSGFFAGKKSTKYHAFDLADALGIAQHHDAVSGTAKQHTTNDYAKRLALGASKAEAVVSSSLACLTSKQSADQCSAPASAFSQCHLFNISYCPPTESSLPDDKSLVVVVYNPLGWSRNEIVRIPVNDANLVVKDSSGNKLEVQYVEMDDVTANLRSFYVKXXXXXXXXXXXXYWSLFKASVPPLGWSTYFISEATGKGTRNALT
T2 sequence (C0HJB3 563-981): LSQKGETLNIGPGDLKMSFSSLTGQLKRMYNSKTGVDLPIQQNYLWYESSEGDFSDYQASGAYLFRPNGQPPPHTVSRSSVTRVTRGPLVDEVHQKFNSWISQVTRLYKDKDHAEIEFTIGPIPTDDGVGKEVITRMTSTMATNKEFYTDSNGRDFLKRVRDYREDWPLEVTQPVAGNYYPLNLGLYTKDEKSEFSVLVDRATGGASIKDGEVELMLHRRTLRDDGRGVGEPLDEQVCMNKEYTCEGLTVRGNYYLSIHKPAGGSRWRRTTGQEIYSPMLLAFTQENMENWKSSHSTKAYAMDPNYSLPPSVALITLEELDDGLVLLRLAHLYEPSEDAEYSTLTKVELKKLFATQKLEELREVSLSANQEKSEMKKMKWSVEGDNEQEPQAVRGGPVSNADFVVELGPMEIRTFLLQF

[5] = biological target: T3, β-galactosidase (Bovine Liver) (Bos taurus, UniProt Q58D55); assay: β-galactosidase inhibitory activity assay (p-nitrophenyl-β-D-galactopyranoside); type: biochemical
T3 sequence (Q58D55 28-653): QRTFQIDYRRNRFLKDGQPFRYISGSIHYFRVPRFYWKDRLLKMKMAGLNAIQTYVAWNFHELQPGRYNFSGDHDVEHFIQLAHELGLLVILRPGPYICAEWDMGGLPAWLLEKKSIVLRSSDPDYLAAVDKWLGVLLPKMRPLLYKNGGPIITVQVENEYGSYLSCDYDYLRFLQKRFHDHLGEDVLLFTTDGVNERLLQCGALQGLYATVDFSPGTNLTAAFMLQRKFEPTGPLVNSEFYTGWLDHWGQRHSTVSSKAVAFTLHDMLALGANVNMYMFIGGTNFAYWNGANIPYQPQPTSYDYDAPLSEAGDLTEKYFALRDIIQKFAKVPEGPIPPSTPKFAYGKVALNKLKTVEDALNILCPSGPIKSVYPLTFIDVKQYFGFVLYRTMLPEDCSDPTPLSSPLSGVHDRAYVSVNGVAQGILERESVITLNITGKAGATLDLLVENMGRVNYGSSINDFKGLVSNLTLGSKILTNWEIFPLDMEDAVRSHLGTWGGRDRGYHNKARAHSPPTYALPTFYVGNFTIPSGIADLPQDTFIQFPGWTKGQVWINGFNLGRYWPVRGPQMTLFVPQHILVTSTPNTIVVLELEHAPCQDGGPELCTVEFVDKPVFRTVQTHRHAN
Description: as §1
Infrared (IR) spectra were recorded on a 1720X Fourier transformation-infrared (FT-IR) spectrometer (Perkin Elmer, MA, USA) or an IRAffinity-1S FT-IR spectrometer (Shimadzu, Kyoto, Japan). High-resolution mass spectra (HRMS) were recorded on a JMS-700 (2) mass spectrometer (JEOL, Tokyo, Japan). Nuclear magnetic resonance (NMR) spectra were recorded at 27 °C on 400-MR-DD2 (Agilent Technologies, CA, USA) and 600-DD2 (Agilent Technologies, CA, USA) instruments in CDCl3 or acetone-d6 using tetramethylsilane as an internal standard. Specific rotations were measured with a JASCO P-2300 spectrometer (JASCO Co., Tokyo, Japan). […]
After 20 min incubation at 37 °C, the reaction was quenched by addition of Na2CO3 solution (0.5 M, 100 μL). The amount of liberated p-nitrophenol was measured colorimetrically at 400 nm (optical density at 400 nm: ODtest). […]

α-glucosidase (Yeast) [6] = biological target: T1, α-glucosidase (Yeast); conditions: cited from earlier work; for IC50: values of a previous work

α-glucosidase inhibitory activity (in words) (α-glucosidase (Yeast) [1]): moderately inhibited
SMILES: COC(=O)C1=CC(O)C(O)C(O)C1OC1C(OC)C(C(=O)OC)=CC(O)C1O (single isomer, unassigned; (+)) [(+)-6]

SMILES: COC(=O)C1=CC(O)C(O)C(OC2C(C(=O)OC)=CC(O)C(O)C2O)C1Cl (single isomer, unassigned; (-)) [(−)-5]
IC50 [3]: > 7.8 mM
IC50 [4]: > 0.0078 M

α-glucosidase inhibitory activity (in words) (α-glucosidase (Yeast) [1]): moderately inhibited
SMILES: COC(=O)C1=CC(O)C(O)C(O)C1OC1C(OC)C(C(=O)OC)=CC(O)C1O (single isomer, unassigned; (-)) [(−)-7]

α-glucosidase inhibitory activity (in words) (α-glucosidase (Yeast) [1]): moderately inhibited
SMILES: COC(=O)C1=CC(O)C(O)C(O)C1OC1C(OC)C(C(=O)OC)=CC(O)C1O (single isomer, unassigned; (-)) [(−)-8]

α-glucosidase inhibitory activity (in words) (α-glucosidase (Yeast) [1]): moderately inhibited
SMILES: COC(=O)C1=CC(O)C(O)C(O)C1OC1C(OC)C(C(=O)OC)=CC(O)C1O (single isomer, unassigned; (-)) [(−)-24]
β-galactosidase inhibitory activity (in words) [5]: showed β-galactosidase inhibitory activities

SMILES: COC(=O)C1=C[C@H](O)[C@H](O)[C@H](O[C@H]2C(C(=O)OC)=C[C@@H](O)[C@@H](O)[C@H]2O)[C@H]1Cl [(+)-4, (+)-pericosine E]
α-glucosidase inhibitory activity (in words) (α-glucosidase (Yeast) [6]): potent activity
IC50 (α-glucosidase (Yeast) [6]): 0.031 mM
IC50 [3]: > 7.8 mM
IC50 [4]: > 0.0078 M

SMILES: COC(=O)C1=C[C@@H](O)[C@@H](O)[C@@H](O[C@@H]2C(C(=O)OC)=C[C@H](O)[C@H](O)[C@@H]2O)[C@@H]1Cl [(−)-4, (−)-pericosine E]
IC50 (α-glucosidase (Yeast) [6]): 1.5 mM
IC50 [3]: > 7.8 mM
IC50 [4]: > 0.0078 M

SMILES: OC[C@H]1NC[C@H](O)[C@@H](O)[C@H]1O [Deoxygalactonojirimycin, reference compound]
IC50 [5]: 0.14 mM

IC50 [2]: […]
SMILES: OC[C@H]1NC[C@H](O)[C@@H](O)[C@@H]1O [Deoxynojirimycin (DNJ), 1-Deoxynojirimycin, reference compound]
